Laboratory results: patent US20140038953A1, “COMPOSITIONS AND METHODS FOR CARDIOVASCULAR DISEASE” (THE GENERAL HOSPITAL CORPORATION, priority 2011, published 2014)
Entries after “also recorded” stand apart in the source; their conditions may differ. Marks after values point to notes of the source that are not given here.

How the values were obtained:
Format in all cases: in vivo
[1] = tested on: LDLR−/− mice; assay: Vascular inflammation / macrophage activity in LDLR−/− mice (Prosense, MAC2); details: for vascular inflammation / macrophage activity (Prosense): high fat diet 20 weeks, 2.5 mg/kg ip daily, vs vehicle, 2.5 mg/kg
Procedure: Fluorescence reflectance imaging (FRI), was performed as previously described. […] After dissection, aortae were subjected to ex vivo near infrared fluorescence reflectance imaging using an Odyssey Imaging System (LI-COR Biotechnology, Lincoln, Nebr.), with integrated signal intensities determined for regions of interest using software version 3.0.16.
For immunofluorescence, frozen sections were post-fixed in cold methanol and incubated with polyclonal antibodies specific for p-SMAD1/5/8 (1:100, Cell Signaling, Danvers, Mass.) or MAC2 (1:100, Cedarlane, Burlington, ON) followed by FITC labeled Goat Anti-Rabbit IgG or Rhodamine Goat Anti-Rat IgG (both Jackson Immuno Research, West Grove, Pa.), respectively.
Mice were injected with Osteosense (to label sites of bone-forming activity via osteoblast binding of this probe) and Prosense (to label sites of macrophage-mediated inflammation). Aortae were explanted and subjected to fluorescence reflectance imaging (LICOR Odyssey imager).
Inflammatory activity, a surrogate of atherosclerotic plaque burden, was assessed by near-IR fluorescence of Prosense (fluor-cathepsin substrate) at […]. Ten individual mice were used in each treatment group.
Inflammatory activity, a surrogate of atherosclerotic plaque burden, was assessed by integrated intensity of near-IR fluorescence of Prosense (fluor-cathepsin substrate) at […].
Each treatment group consisted of a total of 10 mice. After 4 weeks of atherogenic diet and drug or vehicle treatment, the animals were sacrificed. The frontal plane sections of the aortic arch were dissected out and stained for macrophage marker (MAC2) and counterstained with DAPI.

[2] = tested on: C57BL/6 mice; assay: Blood biochemical analysis in WT mice fed a high fat diet
Procedure: (§1) Female mice deficient for the low density lipoprotein receptor (LDLR^−/−) on a C57BL/6 background with appropriate control mice mice (eight weeks of age) were obtained from Jackson Laboratories (Bar Harbor, Me.). Animals were fed a western style diet formulated to match Paigen's Atherogenic Rodent Diet (42% fat, 0.15% cholesterol, 19.5% casein; Research Diets Inc., New Brunswick, N.J.).
(§2) […], white blood count, hematocrit, hemoglobin, and platelets were analyzed using a HemaTrue™ Hematology Analyzer (Heska AG, Switzerland). Urea nitrogen, glucose, alkaline phosphatase, total protein, alanine transaminase and creatinine were determined using a Spotchem EZ SP-4430 POCT analyzer (Arkray, Inc., Kyoto, Japan). HDL and LDL levels were determined using a fluorescence quantification kit (K613-100, Biovision, Mountain View, Calif.)

[3] = tested on: LDLR−/− mice; assay: Blood biochemical analysis in LDLR−/− mice on high fat diet
Procedure: as §1, §2

[4] = tested on: phospho-Smad 1/5/8; assay: Phospho-Smad 1/5/8 immunohistochemistry in MGP−/− aortas; details: MGP−/− mice, 2.5 mg/kg once daily IP day 1 to 28
Procedure: MGP−/− mice were treated with either vehicle or the small molecule BMP type I receptor inhibitor compound 13 (2.5 mg/kg once daily IP) from day 1 to 28. Compound 13 is used as a BMP inhibitor positive control compound in these experiments. Whole aortas were harvested for phospho-Smad 1/5/8 (P-Smad) immunohistochemistry, a marker of BMP signaling, and for Alizarin Red staining of calcium. Osteogenic activity in aortas was visualized ex vivo by the uptake of a fluorescent bisphosphonate imaging probe. MGP−/− mice were also treated with vehicle or compound 13 to ascertain if inhibition of BMP signaling could impact survival, using Kaplan-Meier and Cox regression analysis. […] To further quantify aortic calcium, a fluorescent bisphosphonate agent that specifically binds to hydroxyapatite (OsteoSense 680 nm, Perkin Elmer) was used. (Aikawa E, et al. Multimodality molecular imaging identifies proteolytic and osteogenic activities in early aortic valve disease. Circulation. 2007; 115(3):377-386 and Zaheer A, et al. In vivo near-infrared fluorescence imaging of osteoblastic activity. Nature biotechnology. 2001; 19(12):1148-1154.) MGP−/− mice at 27 days of age treated with vehicle or compound 13 received OsteoSense via tail vein, and 24 h later, aortas were harvested for imaging. […]

[5] = tested on: LDLR−/− mice; assay: Hepatic steatosis in LDLR−/− mice on high fat diet; details: high fat diet 20 weeks, 2.5 mg/kg ip daily
Procedure: Aortas were either immediately embedded and cryopreserved using optimal cutting-temperature medium (Sakura Tissue-Tek, Zoeterwoude, The Netherlands) or fixed in paraformaldehyde and embedded in parafin. The presence of calcification was determined by staining tissue sections with Alizarin red or Von Kossa. Lipid accumulation in tissue sections was visualized by staining with Oil Red O. Liver sections were prepared from paraformaldehyde-fixed tissue and stained with hematoxylin and eosin.

[6] = high fat diet and treatment 6 weeks, compound 13 2.5 mg/kg ip daily, ALK3-Fc 2 mg/kg ip every other day
[7] = female C57BL/6 WT mice, high fat diet 30 weeks, 2.5 mg/kg ip daily, mean ± SEM
[8] = LDLR−/− mice, HFD 20 weeks, in words
[9] = female LDLR−/− mice, high fat diet 6 weeks, compound 13 2.5 mg/kg ip daily, ALK3-Fc 2 mg/kg ip every other day, mean ± SEM
[10] = female LDLR−/− mice, high fat diet 20 weeks, 2.5 mg/kg ip daily, mean ± SEM
[11] = listed as compound 13, 2.5 mg/kg

In the case of `c1ccc2c(-c3cnn4cc(-c5ccc(N6CCNCC6)cc5)cnc34)ccnc2c1` [Compound 13, 4-[6-(4-piperazin-1-ylphenyl)pyrazolo[1,5-a]pyrimidin-3-yl]quinoline], the “MAC2 staining of aortic arch” value ([1]; atherogenic diet and treatment 4 weeks, compound 13 2.5 mg/kg IP daily, ALK3-Fc 2 mg/kg IP every other day) is reported as “decreased staining for MAC2”, the “vascular inflammation / macrophage activity (Prosense)” value [1] is reported as “marked reduction in vascular inflammation; also recorded: severely diminished evidence of macrophage activity” and the “vascular inflammation / macrophage activity (Prosense)” value ([1]; listed as BMP inhibitor positive control compound) is reported as “can reduce vascular calcification and vascular inflammation”. The “foam cell accumulation / macrophage burden (MAC2)” value [1, 6] was “inhibited foam cell accumulation”, the “macrophage / cathepsin activity in aorta (Prosense)” value [1, 6] was “as did treatment with compound 13; also recorded: significantly reduced; also recorded: significantly inhibited” and the Alanine transaminase [2, 7] was 159 ± 19 IU/L. The Alkaline phosphatase [2, 7] was 109 ± 8 IU/L, the Blood urea nitrogen [2, 7] was 25 ± 1 mg/dL and the Cholesterol [2, 7] was 183 ± 6 mg/dL. The Creatinine [2, 7] was 0.5 ± 0.0 mg/dL, the Glucose [2, 7] was 311 ± 12 mg/dL and the Hemoglobin [2, 7] was 13.5 ± 1.0 g/dL. For the same molecule, the Total protein [2, 7] was 4.7 ± 0.2 g/dL, the Triglycerides [2, 7] was 82 ± 21 mg/dL and the “total serum cholesterol vs vehicle” value ([2]; wild-type animals on a HFD, in words) was “reduced total serum cholesterol”. For the same molecule, the “serum alanine transaminase (ALT) levels vs vehicle” value ([3]; LDLR−/− mice on HFD, in words) was “reduced”, the “serum alkaline phosphatase (ALP) levels vs vehicle” value ([3]; LDLR−/− mice on HFD, in words) was “reduced” and the “HDL cholesterol levels vs vehicle” value [3, 8] was “not altered”. For the same molecule, the “serum LDL cholesterol levels vs vehicle” value [3, 8] was “lower serum LDL cholesterol levels”, the “total cholesterol levels vs vehicle” value [3, 8] was “reduced total cholesterol levels” and the “serum LDL cholesterol levels vs vehicle” value ([3]; LDLR−/− mice, HFD 20 weeks, in words, listed as compound 13) was “reduced total cholesterol levels and LDL levels”. The Alanine transaminase [3, 9] was 233 ± 56 IU/L, the Alkaline phosphatase [3, 9] was 112 ± 20 IU/L and the Blood urea nitrogen [3, 9] was 24 ± 2 mg/dL. For the same molecule, the Cholesterol [3, 9] was 1553 ± 77*^,§ mg/dl, the Creatinine [3, 9] was 0.5 ± 0.1 mg/dL and the Glucose [3, 9] was 259 ± 20 mg/dL. It also gave a Hemoglobin [3, 9] of 12.9 ± 1.5 g/dL, a Total protein [3, 9] of 5.1 ± 0.1 g/dL and a Triglycerides [3, 9] of 112 ± 15 mg/dL. The Alanine transaminase [3, 10] was 130 ± 21‘ IU/L, the Alkaline phosphatase [3, 10] was 84 ± 11 IU/L and the Blood urea nitrogen [3, 10] was 25 ± 2 mg/dL. The Cholesterol [3, 10] was 1401 ± 87 mg/dL, the Creatinine [3, 10] was 0.4 ± 0.0 mg/dL and the Glucose [3, 10] was 230 ± 19 mg/dL. The HDL [3, 10] was 73.8 ± 26.5 mg/dL, the Hemoglobin [3, 10] was 12.9 ± 0.8 g/dL and the LDL [3, 10] was 1166.3 ± 257.3 mg/dL. For the same molecule, the Total protein [3, 10] was 4.3 ± 0.4 g/dL, the Triglycerides [3, 10] was 135 ± 16 mg/dL and the “aortic P-Smad (Smad 1/5/8 phosphorylation)” value ([4]; 2.5 mg/kg) was “reduced aortic P-Smad”. The “aortic P-Smad (Smad 1/5/8 phosphorylation)” value [4, 11] was “reduced BMP signaling”, the hepatic steatosis ([5]; 2.5 mg/kg) was “protected from hepatic steatosis” and the hepatic steatosis [5, 11] was “could be prevented”.
